Patent US20070048225A1, “NK3 receptor in vivo assay” (priority 2005, published 2007)
Numbered stars: 1 amine (or outer) side, 2 acyl side, 3 side chain; on linkers, the order of the positions; unused ones are H or OH. Square brackets hold non-standard residues; d marks the D form. Peptide text beside a SMILES is read from it. NMeF = CN[C@@H](Cc1ccccc1)C(=O)O; Suc = O=C(CCC(=O)[*:2])[*:1]

How the values were obtained:
NK3-receptor = biological target: T1, NK3-receptor (Homo sapiens, UniProt P29371); conditions: double blind placebo controlled; Meltzer et al. 2004; cited from earlier work
T1 construct: active in a double blind placebo controlled clinical trial in schizophrenia patients; host or cells: schizophrenia patients (Meltzer et al., Am J Psych 161:975-84, 2004)
T1 sequence (P29371 1-465): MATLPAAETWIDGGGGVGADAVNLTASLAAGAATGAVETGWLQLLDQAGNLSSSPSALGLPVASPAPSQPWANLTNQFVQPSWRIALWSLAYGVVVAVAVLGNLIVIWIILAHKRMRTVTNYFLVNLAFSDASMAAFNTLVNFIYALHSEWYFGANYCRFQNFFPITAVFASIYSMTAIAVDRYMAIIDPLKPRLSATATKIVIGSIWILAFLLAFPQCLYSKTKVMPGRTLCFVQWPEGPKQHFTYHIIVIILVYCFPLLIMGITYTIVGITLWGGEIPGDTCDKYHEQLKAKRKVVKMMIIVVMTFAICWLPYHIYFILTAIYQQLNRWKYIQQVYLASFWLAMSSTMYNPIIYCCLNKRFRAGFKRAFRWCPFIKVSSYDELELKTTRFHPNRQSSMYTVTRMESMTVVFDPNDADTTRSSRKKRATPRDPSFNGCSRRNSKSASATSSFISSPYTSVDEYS

NK3 receptor = experiment: Senktide-induced locomotor activity in gerbils (total distance traveled); format: in vivo, Mongolian gerbil; conditions: senktide 0.01, 0.03 or 0.1 nM/5 μL ICV tested, effect at 0.1 nM/5 μL, activity measured for 90 minutes, FIG. 1
Method: Male and female Mongolian gerbils [Biological Research Laboratories, 4414 Füllinsdorf, Switzerland] weighing between 40-70 g were used. Gerbils were housed four per cage for approximately four to seven days following arrival in the laboratory colony. The gerbils had ad libitum access to tap water and lab chow in the home cage. The animal quarters were maintained on a 12:12 hour light-dark cycle with light onset at 6 a.m. and with both temperature (21-23° C.) and humidity (55-65%) regulated. All testing was conducted during the light phase of the light-dark cycle. All procedures described here received prior approval from the City of Basel Cantonal Animal Protection Committee based on adherence to federal and local regulations. The experiments were carried out in an animal colony supervised by the veterinary staff of Hoffmann-La Roche Ltd.
The antagonists were prepared immediately prior to use (vehicle 0.3% Tween-80/saline). […]
The incision was closed using a clip suture and gerbils were placed into perspex boxes on recovery of their righting reflex and then placed into locomotor activity boxes (Accuscan instruments, USA). Activity was then measured automatically for a period of 90 minutes.
Data were analysed using a One way anova followed by Dunnet multiple comparison test or t-test (one-tailed) where appropriate (Statistica, Statsoft).

SMILES | activity in clinical trial in schizophrenia patients (NK3-receptor) | total distance traveled (locomotor activity) (NK3 receptor)
CC(=O)N(C)C1(c2ccccc2)CCN(CCC[C@]2(c3ccc(Cl)c(Cl)c3)CCCN(C(=O)c3ccccc3)C2)CC1 [SR142801] | active | –
CSCC[C@H](NC(=O)[C@H](CC(C)C)NC(=O)CNC(=O)[C@H](Cc1ccccc1)N(C)C(=O)[C@H](Cc1ccccc1)NC(=O)[C@H](CC(=O)O)NC(=O)CCC(=O)O)C(N)=O [Senktide, N-(3-carboxy-1-oxopropyl)-L-α-aspartyl-L-phenylalanyl-N-methyl-L-phenylalanylglycyl-L-leucyl-L-methioninamide] (Suc-DF[NMeF]GLM-NH2) | – | significant increase
